Test results published in patent publication US12371454B2, “Cyclic peptide compound having Kras inhibitory action” (priority 2019, dated 2025).
Starred links: 1 amine or outer side, 2 acyl side, 3 side chain; linkers in the order of their positions; H or OH if unused. Positions of bridges follow the written chain, without caps; N, C: chain ends. Non-standard residues stand in square brackets, D forms with d. Residues, ends and D or L forms follow the SMILES beside them. *: point of attachment. hPhe(3-Cl-4-CF3) = N[C@@H](CCc1ccc(C(F)(F)F)c(Cl)c1)C(=O)O; NMeDab(N,N-(CH2CF2CH2)) = CN[C@@H](CCN1CC(F)(F)C1)C(=O)O; hPhe(3-F,4-CF3) = N[C@@H](CCc1ccc(C(F)(F)F)c(F)c1)C(=O)O; X38 = CN([C@@H](Cc1cccc(OC(F)(F)F)c1)C(=O)[*:2])[*:1]; hPhe(4-CF3) = N[C@@H](CCc1ccc(C(F)(F)F)cc1)C(=O)O; NMePhe(4-Cl) = CN[C@@H](Cc1ccc(Cl)cc1)C(=O)O; X35 = CN([C@@](C)(Cc1ccccc1)C(=O)[*:2])[*:1]; NMePhe(4-F) = CN[C@@H](Cc1ccc(F)cc1)C(=O)O; NMeGly(cPent) = CN[C@H](C(=O)O)C1CCCC1; Phe(3-I) = N[C@@H](Cc1cccc(I)c1)C(=O)O; dβ3hPip = O=C(C[C@H]1CCCCN1[*:1])[*:2]; NMeY = CN[C@@H](Cc1ccc(O)cc1)C(=O)O; NMeCha = CN[C@@H](CC1CCCCC1)C(=O)O; Azetidine(3,3-F2) = FC1(F)CN(*)C1; NMeChg = CN[C@H](C(=O)O)C1CCCCC1; NMeF = CN[C@@H](Cc1ccccc1)C(=O)O; NMeD = CN[C@@H](CC(=O)O)C(=O)O; NMeL = CN[C@@H](CC(C)C)C(=O)O; NMehSer = CN[C@@H](CCO)C(=O)O; NMeV = CN[C@H](C(=O)O)C(C)C; d(β3hA) = C[C@@H](N)CC(=O)O; Iva = CC[C@](C)(N)C(=O)O; NMeA = CN[C@@H](C)C(=O)O; Nle = CCCC[C@H](N)C(=O)O; Piperidide = C1CCN(*)CC1; Pyrrolidide = C1CCN(*)C1; Ac5c = NC1(C(=O)O)CCCC1; Aze = O=C(O)[C@@H]1CCN1; Ac4c = NC1(C(=O)O)CCC1; Sar = CNCC(=O)O; Propyl = CCC*

These molecules were tested against T1, Kras and SOS1 (biotin-tagged human Kras loaded with GDP, His-tagged human SOS1) (Homo sapiens, UniProt P01116, G12D) (assay: Protein-protein interaction inhibition between Kras and SOS1 (KrasGl2D-SOS PPI) using AlphaScreen). Conditions: AlphaScreen; biotin-tagged human Kras loaded with GDP, His-tagged human SOS1; read-out: KRAS G12D-SOS PPI IC50.
T1 construct: made in house; host or cells: E. coli (stated for Kras only)
T1 sequence (P01116 1-188 isoform P01116-2 G12D): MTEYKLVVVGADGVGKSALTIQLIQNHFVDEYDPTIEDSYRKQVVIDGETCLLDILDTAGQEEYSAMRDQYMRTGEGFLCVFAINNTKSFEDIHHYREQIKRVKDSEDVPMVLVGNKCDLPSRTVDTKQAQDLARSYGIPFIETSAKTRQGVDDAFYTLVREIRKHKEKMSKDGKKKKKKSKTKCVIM
Assay type: binding
How it was run: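 Kras was produced in E. coli, purified, then loaded with GDP. It was paired via streptavidin acceptor beads with His-SOS1 held on nickel donor beads, and proximity signal at 520-620 nm was read after 680 nm illumination.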

SMILES	IC50
CCCC[C@@H]1NC(=O)[C@H](Cc2cccc(I)c2)NC(=O)CN(C)C(=O)[C@H](Cc2ccc(OC)cc2)N(C)C(=O)CN(C)C(=O)CN(C)C(=O)[C@H]([C@@H](C)CC)NC(=O)[C@H](CC(C)C)N(C)C(=O)C[C@@H](C(=O)N2CCCCC2)N(C)C(=O)[C@H](CC(C)C)NC(=O)[C@](C)(Cc2ccccc2)N(C)C1=O [Compound 125] ([NMeL]I[Sar][Sar][NMeY](Me)[Sar][Phe(3-I)][Nle][X35]L[NMeD]-Piperidide; lactam N-11)	2.8 nM
CCCOC[C@@H]1NC(=O)[C@H](CC(=O)N2CC(F)(F)C2)N(C)C(=O)[C@H](CCc2ccc(C(F)(F)F)c(Cl)c2)NC(=O)CN(C)C(=O)[C@H](CC2CCCCC2)N(C)C(=O)CN(C)C(=O)CN(C)C(=O)[C@H]([C@@H](C)CC)NC(=O)[C@H](C)N(C)C(=O)C[C@@H](C(=O)N2CCCCC2)N(C)C(=O)[C@H](C(C)C)N(C)C1=O [Compound 129] ([NMeA]I[Sar][Sar][NMeCha][Sar][hPhe(3-Cl-4-CF3)][NMeD](Azetidine(3,3-F2))S(Propyl)[NMeV][NMeD]-Piperidide; lactam N-11)	11 nM
CC[C@H](C)[C@@H]1NC(=O)[C@H](CC(C)C)N(C)C(=O)C[C@@H](C(=O)N(C)C)N(C)C(=O)[C@H](C2CCCC2)N(C)C(=O)[C@H](COC)NC(=O)[C@H](CCN2CC(F)(F)C2)N(C)C(=O)[C@H](CCc2ccc(C(F)(F)F)c(Cl)c2)NC(=O)CN(C)C(=O)[C@H](CC2CCCCC2)N(C)C(=O)[C@@H]2CCN2C(=O)[C@H](C)N(C)C1=O [Compound 130] ([NMeL]I[NMeA][Aze][NMeCha][Sar][hPhe(3-Cl-4-CF3)][NMeDab(N,N-(CH2CF2CH2))]S(Me)[NMeGly(cPent)][NMeD]-NMe2; lactam N-11)	10 nM
CC[C@H](C)[C@@H]1NC(=O)[C@H](CC(C)C)N(C)C(=O)C[C@@H](C)NC(=O)[C@H](CC(C)C)N(C)C(=O)C2(CCC2)NC(=O)[C@@H]2CCCN2C(=O)[C@H](CCc2ccc(C(F)(F)F)c(F)c2)NC(=O)CN(C)C(=O)[C@H](CC2CCCCC2)N(C)C(=O)CN(C)C(=O)CN(C)C1=O [Compound 133] (cyclo([Ac4c][NMeL][d(β3hA)][NMeL]I[Sar][Sar][NMeCha][Sar][hPhe(3-F,4-CF3)]P))	23 nM
CC[C@H](C)[C@@H]1NC(=O)[C@H](C)N(C)C(=O)C[C@@H](C(=O)N2CCCCC2)N(C)C(=O)[C@H](C(C)C)N(C)C(=O)C2(CCCC2)NC(=O)[C@@H]2CCCN2C(=O)[C@H](CCc2ccc(C(F)(F)F)c(Cl)c2)NC(=O)[C@H]2CCCN2C(=O)[C@H](CC2CCCCC2)N(C)C(=O)CN(C)C(=O)CN(C)C1=O [Compound 135] ([NMeA]I[Sar][Sar][NMeCha][dP][hPhe(3-Cl-4-CF3)]P[Ac5c][NMeV][NMeD]-Piperidide; lactam N-11)	38 nM
CC[C@H](C)[C@@H]1NC(=O)[C@H](CC(C)C)N(C)C(=O)C[C@H]2CCCCN2C(=O)[C@H](C(C)C)N(C)C(=O)C2(CCCC2)NC(=O)[C@@H]2CCCN2C(=O)[C@H](CCc2ccc(C(F)(F)F)c(F)c2)NC(=O)CN(C)C(=O)[C@H](CC2CCCCC2)N(C)C(=O)CN(C)C(=O)CN(C)C1=O [Compound 142] (cyclo([Ac5c][NMeV][dβ3hPip][NMeL]I[Sar][Sar][NMeCha][Sar][hPhe(3-F,4-CF3)]P))	38 nM
CCCC[C@@H]1NC(=O)[C@H](Cc2cccc(I)c2)NC(=O)CN(C)C(=O)[C@H](Cc2ccc(Cl)cc2)N(C)C(=O)CN(C)C(=O)CN(C)C(=O)[C@H]([C@@H](C)CC)NC(=O)[C@H](CC(C)C)N(C)C(=O)C[C@@H](C(=O)N2CCCCC2)N(C)C(=O)[C@H](CC(C)C)NC(=O)[C@H](Cc2cccc(OC(F)(F)F)c2)N(C)C1=O [Compound 143] ([NMeL]I[Sar][Sar][NMePhe(4-Cl)][Sar][Phe(3-I)][Nle][X38]L[NMeD]-Piperidide; lactam N-11)	68 nM
CC[C@H](C)[C@@H]1NC(=O)[C@H](C)N(C)C(=O)C[C@@H](C)NC(=O)[C@H](C2CCCC2)N(C)C(=O)C2(CCCC2)NC(=O)[C@@H]2CCCN2C(=O)[C@H](CCc2ccc(C(F)(F)F)c(Cl)c2)NC(=O)CN(C)C(=O)[C@H](Cc2ccc(F)cc2)N(C)C(=O)[C@@H]2CCCN2C(=O)CN(C)C1=O [Compound 146] (cyclo([Ac5c][NMeGly(cPent)][d(β3hA)][NMeA]I[Sar]P[NMePhe(4-F)][Sar][hPhe(3-Cl-4-CF3)]P))	4 nM
COC[C@@H]1NC(=O)[C@H](CC(C)C)N(C)C(=O)C[C@@H](C(=O)N2CCCCC2)N(C)C(=O)[C@H](C2CCCCC2)N(C)C(=O)C2(CCCC2)NC(=O)[C@@H]2CCCN2C(=O)[C@H](CCc2ccc(C(F)(F)F)c(Cl)c2)NC(=O)CN(C)C(=O)[C@H](CC2CCCCC2)N(C)C(=O)CN(C)C(=O)CN(C)C1=O [Compound 148] ([NMeL]S(Me)[Sar][Sar][NMeCha][Sar][hPhe(3-Cl-4-CF3)]P[Ac5c][NMeChg][NMeD]-Piperidide; lactam N-11)	1.8 nM
CC[C@H](C)[C@@H]1NC(=O)[C@H](CC(C)C)N(C)C(=O)C[C@@H](C)NC(=O)[C@H](C(C)C)N(C)C(=O)[C@](C)(CC)NC(=O)[C@@H]2CCCN2C(=O)[C@H](CCc2ccc(C(F)(F)F)c(Cl)c2)NC(=O)CN(C)C(=O)[C@H](CC2CCCCC2)N(C)C(=O)CN(C)C(=O)CN(C)C1=O [Compound 149] (cyclo(I[Sar][Sar][NMeCha][Sar][hPhe(3-Cl-4-CF3)]P[Iva][NMeV][d(β3hA)][NMeL]))	51 nM
CC[C@H](C)[C@@H]1NC(=O)[C@H](C)N(C)C(=O)C[C@@H](C(=O)N2CCCC2)NC(=O)[C@H](C(C)C)N(C)C(=O)[C@H](Cc2ccccc2)N(C)C(=O)[C@H](CC(C)C)N(C)C(=O)[C@H](CCc2ccc(C(F)(F)F)cc2)NC(=O)CN(C)C(=O)[C@H](Cc2ccc(Cl)cc2)N(C)C(=O)CN(C)C(=O)CN(C)C1=O [Compound 152] ([NMeA]I[Sar][Sar][NMePhe(4-Cl)][Sar][hPhe(4-CF3)][NMeL][NMeF][NMeV]D-Pyrrolidide; lactam N-11)	110 nM
CCCOC[C@@H]1NC(=O)[C@H](CCN2CC(F)(F)C2)N(C)C(=O)[C@H](CCc2ccc(C(F)(F)F)c(Cl)c2)NC(=O)CN(C)C(=O)[C@H](CC2CCCCC2)N(C)C(=O)CN(C)C(=O)CN(C)C(=O)[C@H]([C@@H](C)CC)NC(=O)[C@H](C)N(C)C(=O)C[C@@H](C(=O)N2CCCCC2)N(C)C(=O)[C@H](C(C)C)N(C)C1=O [Compound 154] ([NMeA]I[Sar][Sar][NMeCha][Sar][hPhe(3-Cl-4-CF3)][NMeDab(N,N-(CH2CF2CH2))]S(Propyl)[NMeV][NMeD]-Piperidide; lactam N-11)	4.8 nM
CC[C@H](C)[C@@H]1NC(=O)[C@H](C(C)C)N(C)C(=O)C[C@@H](C)NC(=O)[C@H](CC(C)C)N(C)C(=O)C2(CCCC2)NC(=O)[C@H](CC(C)C)N(C)C(=O)[C@H](CCc2ccc(C(F)(F)F)c(Cl)c2)NC(=O)CN(C)C(=O)[C@H](Cc2ccc(Cl)cc2)N(C)C(=O)[C@@H]2CCN2C(=O)CN(C)C1=O [Compound 158] (cyclo([Ac5c][NMeL][d(β3hA)][NMeV]I[Sar][Aze][NMePhe(4-Cl)][Sar][hPhe(3-Cl-4-CF3)][NMeL]))	10 nM
CC[C@H](C)[C@@H]1NC(=O)[C@H](CC(C)C)N(C)C(=O)C[C@@H](C(=O)N2CCCCC2)N(C)C(=O)[C@H](C2CCCCC2)N(C)C(=O)C2(CCCC2)NC(=O)[C@@H]2CCCN2C(=O)[C@H](CCc2ccc(C(F)(F)F)c(Cl)c2)NC(=O)CN(C)C(=O)[C@H](CCOC)N(C)C(=O)CN(C)C(=O)CN(C)C1=O [Compound 159] ([NMeL]I[Sar][Sar][NMehSer](Me)[Sar][hPhe(3-Cl-4-CF3)]P[Ac5c][NMeChg][NMeD]-Piperidide; lactam N-11)	2.4 nM
